Results on two compounds are retold here after US11090275B2, “Compositions comprising cannabidiol and second therapeutic agents for the treatment of cancer” (JAY PHARMA, INC., priority 2015, dated 2021).

In general, IC50 refers to the midpoint of a concentration-inhibition curve.

Like-named read-outs stand apart in the source and are kept apart here.

The subject of assay [1] is Mcl-1. Nature of the assay: Western blot of Mcl-1 in CCRF-CEM cells. The format is cell-based, human. The note with it: 20 μM cannabidiol, by 3h of treatment. How it is done:
Cells washed twice with ice cold PBS and lysed in RIPA buffer (50 mM Tris-HCl, 0.1% NP-40, 1 mM DTT, 0.25M sucrose, 2 mM MgCl2, pH 7.4) for 30 min on ice. After centrifugation, the post-nuclear supernatant containing the cell soluble fraction were loaded on to a 12% SDS-PAGE gel. After electrophoresis, the gels were blotted onto a PVDF membrane (Bio-Rad, Hercules, Calif.), blocked with 5% (w/v) milk for overnight at 4° C. temperature, washed briefly in Tris-Buffered Saline Tween-20 (TBST), and then probed overnight at 4° C. with the anti-mouse human anti-MC1-1 and calreticulin (CRN) primary antibodies. Primary antibody binding was detected with anti-mouse IgG conjugated to horseradish peroxidase (Jackson Immunoresearch, Avondale, Pa.), and made visible by enhanced chemiluminescence (ECL) (Biological Industries, Israel), according to manufacturer's instructions. Antibodies against MCl-1 and calreticulin (CRN) were purchased from Santa Cruz, Calif., USA.
Background: Immunoblotting shows a protein as a band on a membrane.

Assay [2] has as its system HL-60 tumor. As to the kind of experiment: Mouse xenograft model transplanted with HL-60 cells. The format is in vivo. The note with it: 5 mg/kg CBD, 10 mg/kg CL, alone and combination, peritumoral; days 7 through 14. How it is done:
NOD/SCID mice were bred and housed at animal facility of Ben-Gurion University of the Negev, Israel. All animals were used between 7-8 weeks old of age. For induction of tumor, mice were irradiated with 2.7 Gy X ray radiation for 2 min. The following 5 hours, mice were injected with 1 million viable HL-60 cells on right flank of mice. Mice were monitored for tumorigenesis. Tumors were measured during 14 days and their volumes (mm^3) were calculated as (d^2XD)/2 (where d is the shortest and D is the longest diameter of the tumor in mm). […] The injection was repeated once a day, 5 days per week, and tumor volumes were checked twice a week until the vehicle died and the remained animals were sacrificed.

The test system of assay [3] is CCRF-CEM cells. As to the kind of experiment: Morphological quantification of apoptosis (acridine orange/ethidium bromide), CCRF-CEM. The format is cell-based, human. The note with it: serum free and 5% FCS medium, 24h. How it is done:
(§1) for determination of apoptosis, cells were harvested (650 g, 7 min) and stained with acridine orange/ethidium bromide at a final concentration of 0.05 mg/ml. This method allows distinguishing between live, necrotic and apoptotic cells (FIG. 11). […] At least 100 cells were counted under a fluorescence microscope and the percentage of affected cells was calculated.

Assay [4] deals with MCF-7 cells. As to the kind of experiment: XTT cell viability, MCF-7 cells. The format is cell-based. The note with it: cannabidiol at 5 μM or more, 24h. How it is done:
(§2) human HL-60, myeloblastic leukemia and CCRF-CEM, acute lymphoblastic leukemia cell line were cultured in RPMI-1640 supplemented with 10% (v/v) heat-inactivated fetal calf serum, 2 mM L-glutamine, 100U/ml penicillin and 100 μg/ml streptomycin. MCF-7, breast cancer and A-172, glioblastoma cell lines were cultured in DMEM supplemented with 10% (v/v) heat-inactivated fetal calf serum, 2 mM L-glutamine, 100U/ml penicillin and 100 μg/ml streptomycin. Cultures were maintained at 37° C. in a humidified atmosphere with 5% CO2 and maintained in exponential phase by transfer to fresh medium every 2-3 days. Experiments were conducted in serum free medium and 5% or 10% FCS medium. The trypanblue dye exclusion method was used for cell counting performed using a hemocytometer under light microscope.

The test system of assay [5] is A-172 cells. Nature of the assay: XTT cell viability, A-172 cells. The format is cell-based, human. The note with it: cannabidiol at 5 μM or more, 48h. How it is done:
as §2

For assay [6], the system named is HL-60 cells. Nature of the assay: Morphological quantification of apoptosis (acridine orange/ethidium bromide), HL-60. The format is cell-based, human. The note with it: 5% FCS medium, 24 and 48h. How it is done: as §1
Assay [7] relates to CCRF-CEM cells. As to the kind of experiment: XTT cell viability, CCRF-CEM cells. The format is cell-based, human. The note with it: cannabidiol at 5 μM or more, 24h. How it is done: as §2
In general terms: Formazan colour is commonly taken as a measure of viable cells.

In assay [8] the test system is HL-60 cells. Nature of the assay: XTT cell viability, HL-60 cells. The format is cell-based, human. The settings on record: for IC50: Homo sapiens. How it is done:
as §2

As for `C=C(C)[C@@H]1CCC(C)=C[C@H]1c1c(O)cc(CCCCC)cc1O` [CBD, Cannabidiol], the Mcl-1 expression result in assay [1] is “down regulated”. For the same compound, the HL-60 tumor growth entry in assay [2] is “significant suppression”. Also, the induction of apoptosis entry is “dose and time dependent induction of apoptosis” in assay [3]; “dose and time dependent induction of apoptosis” in assay [6]. The “number of viable cells” value in assay [4] is “significant reduction in the number of viable cells”; in assay [5], “significant reduction in the number of viable cells”; in assay [7], “significant reduction in the number of viable cells”; in assay [8] (cannabidiol at 5 μM or more, 24h and 48 h) it was “significant reduction in the number of viable cells”. The “effect on cell viability at very low concentration” value in assay [8] (0.2 μM, serum free condition, 24h) is recorded as “profound effect on reduction of cell viability”. Further, the “sensitivity of cells to CBD” value in assay [8] (10% FCS medium, 24h) is reported as “less sensitive”. The half-inhibitory concentration (IC50) in assay [8] (HL-60, 24 h, read-out: IC50, cell viability) turned out to be 0.26 µM; in assay [8] (HL-60, 48 h, read-out: IC50 value, cell viability) it was 16 µM.
On to `CCN(CC)CCOc1ccc(C(=C(Cl)c2ccccc2)c2ccccc2)cc1` [clomiphene], for which the HL-60 tumor growth result in assay [2] is given as “significant suppression”.
